This test has as its target T1, EBP (Homo sapiens, UniProt Q15125).
T1 construct: HEK293T cells were utilized as the source of EBP enzyme; endogenous in cells; host or cells: HEK293T
Put plainly: EBP Functional Assay (EBP immunoaffinity LC-MS assay). Format: biochemical. Particulars: EBP enzyme from HEK293T cells; 30 min with inhibitor, then zymosterol-d5 at 37° C. for 4 h; percent conversion by LC-APCI MRM MS. Here is the method:
The EBP immunoaffinity (IA) LC-MS assay measures the potency of small molecule inhibitors of EBP by quantifying their concentration-dependent changes in the enzyme's substrate and product using liquid chromatography atmospheric pressure chemical ionization multiple reaction monitoring mass spectrometry (LC-APCI MRM MS). HEK293T cells were utilized as the source of EBP enzyme. The enzyme was incubated with the small molecule inhibitors at variable concentrations for 30 min. Deuterated form of EBP substrate, zymosterol-d5 (Avanti Polar Lipids, Cat #700068P-1 mg), was then added and the plate was incubated at 37° C. for 4 h. Finally, the sterol isomers were extracted and injected to LC-APCI MRM MS. MRM transition used for the quantification for both zymosterol and […] (substrate and product of EBP enzymatic reaction, respectively) is 372.3-203.2, CE 30 and DP 80 in positive ion mode. Percent conversion of the zymosterol-d5 to dehydrolathosterol-d5 was used to derive IC50 curves. Tasin-1 (1′-[(4-Methoxyphenyl)sulfonyl]-4-methyl-1,4′-bipiperidine, CAS 792927-06-1) was used as the reference small molecule inhibitor.
Percent conversion versus the compound concentration data were fit to the following 4-parameter logistic model to generate IC50 curves: […]
T1 sequence (Q15125 whole entry): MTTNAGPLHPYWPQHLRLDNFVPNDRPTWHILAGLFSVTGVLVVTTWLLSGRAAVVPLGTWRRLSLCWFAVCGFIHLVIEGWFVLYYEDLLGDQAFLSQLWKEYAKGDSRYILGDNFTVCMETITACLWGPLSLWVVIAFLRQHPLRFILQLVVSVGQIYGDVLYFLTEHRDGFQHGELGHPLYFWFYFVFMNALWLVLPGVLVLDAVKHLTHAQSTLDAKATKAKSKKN
On to `O=S(=O)(c1ccc(OC(F)F)cc1)N1C[C@H]2C[C@H](NC3CC4(COC4)C3)C[C@H]2C1` [Example 19, (3aR,5s,6aS)-2-((4-(Difluoromethoxy)phenyl)sulfonyl)-N-(2-oxaspiro[3.3]heptan-6-yl)octahydrocyclopenta[c]pyrrol-5-amine], for which the concentration for half-maximal inhibition (IC50) lay in the range of 100 to 500 nM.

As for `Cn1nc(C2CC2)cc1S(=O)(=O)N1C[C@H]2C[C@H](NC3CC4(COC4)C3)C[C@H]2C1` [Example 20, (3aR,5s,6aS)-2-((3-Cyclopropyl-1-methyl-1H-pyrazol-5-yl)sulfonyl)-N-(2-oxaspiro[3.3]heptan-6-yl)octahydrocyclopenta[c]pyrrol-5-amine], the IC50 is 100 to 500 nM.

With `Cn1nc(C2CC2)cc1S(=O)(=O)N1C[C@H]2C[C@H](NCC3(C)COC3)C[C@H]2C1` [Example 21, (3aR,5s,6aS)-2-((3-Cyclopropyl-1-methyl-1H-pyrazol-5-yl)sulfonyl)-N-((3-methyloxetan-3-yl)methyl)octahydrocyclopenta[c]pyrrol-5-amine], the half-inhibitory concentration (IC50) is less than 100 nM.

`Cc1nc(C(F)(F)F)ccc1S(=O)(=O)N1C[C@H]2C[C@H](N(C)CC3CCOCC3)C[C@H]2C1` [Example 23, (3aR,5s,6aS)-N-Methyl-2-((2-methyl-6-(trifluoromethyl)pyridin-3-yl)sulfonyl)-N-((tetrahydro-2H-pyran-4-yl)methyl)octahydrocyclopenta[c]pyrrol-5-amine] yielded an IC50 of less than 100 nM.

`Cc1nc(C(F)(F)F)ccc1S(=O)(=O)N1C[C@H]2C[C@H](NCC3CCOCC3)C[C@H]2C1` [Example 27, (3aR,5s,6aS)-2-((2-Methyl-6-(trifluoromethyl)pyridin-3-yl)sulfonyl)-N-((tetrahydro-2H-pyran-4-yl)methyl)octahydrocyclopenta[c]pyrrol-5-amine] displayed an IC50 of less than 100 nM.

Take `Cc1nc(C(F)(F)F)ccc1S(=O)(=O)N1C[C@H]2C[C@H](NC3CCOCC3)C[C@H]2C1` [Example 28, (3aR,5s,6aS)-2-((2-Methyl-6-(trifluoromethyl)pyridin-3-yl)sulfonyl)-N-(tetrahydro-2H-pyran-4-yl)octahydrocyclopenta[c]pyrrol-5-amine]: the 50% inhibitory concentration (IC50) is less than 100 nM.

As for `Cc1nc(C(F)(F)F)ccc1S(=O)(=O)N1C[C@H]2C[C@H](NCC3(C)COC3)C[C@H]2C1` [Example 29, (3aR,5s,6aS)-2-((2-Methyl-6-(trifluoromethyl)pyridin-3-yl)sulfonyl)-N-((3-methyloxetan-3-yl)methyl)octahydrocyclopenta[c]pyrrol-5-amine], the IC50 was less than 100 nM.

`Cc1nc(C(F)(F)F)ccc1S(=O)(=O)N1C[C@H]2C[C@H](NC3CC4(COC4)C3)C[C@H]2C1` [Example 30, (3aR,5s,6aS)-2-((2-Methyl-6-(trifluoromethyl)pyridin-3-yl)sulfonyl)-N-(2-oxaspiro[3.3]heptan-6-yl)octahydrocyclopenta[c]pyrrol-5-amine] displayed an IC50 of 100 to 500 nM.

Consider `Cc1cc(S(=O)(=O)N2C[C@H]3CN(C4CCOCC4)C[C@H]3C2)n(C)n1` [Example 31, (3aR,6aS)-2-((1,3-dimethyl-1H-pyrazol-5-yl)sulfonyl)-5-(tetrahydro-2H-pyran-4-yl)octahydropyrrolo[3,4-c]pyrrole], for which the half-inhibitory concentration (IC50) lay within 100 to 500 nM.

In turn, `Cc1cc(C)c(S(=O)(=O)N2CC3CN(C4CCOCC4)CC3C2)c(C)c1` (centres unmarked) [Example 32, 2-(Mesitylsulfonyl)-5-(tetrahydro-2H-pyran-4-yl)octahydropyrrolo[3,4-c]pyrrole] had a 50% inhibitory concentration (IC50) of less than 100 nM.

Compound `N#Cc1cc(F)cc(S(=O)(=O)N2C[C@H]3CN(C4CCOCC4)C[C@H]3C2)c1` [Example 33, 3-Fluoro-5-(((3aR,6aS)-5-(tetrahydro-2H-pyran-4-yl)hexahydropyrrolo[3,4-c]pyrrol-2(1H)-yl)sulfonyl)benzonitrile] had an IC50 greater than 500 nM.

Take `COc1ccc(S(=O)(=O)N2C[C@H]3CN(C4CCOCC4)C[C@H]3C2)c(C)n1` [Example 34, (3aR,6aS)-2-((6-Methoxy-2-methylpyridin-3-yl)sulfonyl)-5-(tetrahydro-2H-pyran-4-yl)octahydropyrrolo[3,4-c]pyrrole]: the IC50 is less than 100 nM.

With `Cc1nc(C(F)(F)F)ccc1S(=O)(=O)N1C[C@H]2CN(C3CCOCC3)C[C@H]2C1` [Example 35, (3aR,6aS)-2-((2-Methyl-6-(trifluoromethyl)pyridin-3-yl)sulfonyl)-5-(tetrahydro-2H-pyran-4-yl)octahydropyrrolo[3,4-c]pyrrole], the IC50 was less than 100 nM.

As for `O=S(=O)(c1cc(F)cc(F)c1)N1C[C@H]2CN(C3CCOCC3)C[C@H]2C1` [Example 39, (3aR,6aS)-2-((3,5-Difluorophenyl)sulfonyl)-5-(tetrahydro-2H-pyran-4-yl)octahydropyrrolo[3,4-c]pyrrole], the IC50 fell in the range of 100 to 500 nM.

For `Cc1nc(C(F)(F)F)ccc1S(=O)(=O)N1C[C@H]2CN(C3CCOCC3)C[C@@H]2C1` [Example 45, (3aR,6aR)-2-((2-Methyl-6-(trifluoromethyl)pyridin-3-yl)sulfonyl)-5-(tetrahydro-2H-pyran-4-yl)octahydropyrrolo[3,4-c]pyrrole], the IC50 was 100 to 500 nM.

The compound `Cn1nc(C(F)(F)F)cc1S(=O)(=O)N1C[C@H]2CN(C3CCOCC3)C[C@@H]2C1` [Example 46, (3aR,6aR)-2-((1-Methyl-3-(trifluoromethyl)-1H-pyrazol-5-yl)sulfonyl)-5-(tetrahydro-2H-pyran-4-yl)octahydropyrrolo[3,4-c]pyrrole] gave an IC50 of 100 to 500 nM.

`Cc1cc(S(=O)(=O)N2C[C@H]3CN(C4CCOCC4)C[C@H]3C2)n(C)n1` [Example 49, Rac-(3aR,6aS)-2-((1,3-dimethyl-1H-pyrazol-5-yl)sulfonyl)-5-(tetrahydro-2H-pyran-4-yl)octahydropyrrolo[3,4-c]pyrrole] came in with an IC50 greater than 500 nM.

In the case of `Cc1nc(C(F)(F)F)nc(C)c1S(=O)(=O)N1C[C@H]2CN(C3CCOCC3)C[C@@H]2C1` [Example 60, (3aR,6aR)-2-((4,6-dimethyl-2-(trifluoromethyl)pyrimidin-5-yl)sulfonyl)-5-(tetrahydro-2H-pyran-4-yl)octahydropyrrolo[3,4-c]pyrrole], the concentration for half-maximal inhibition (IC50) is less than 100 nM.

Take `Cc1nc(C(F)(F)F)nc(C)c1S(=O)(=O)N1C[C@H]2CN(C3CC4(COC4)C3)C[C@@H]2C1` [Example 61, (3aR,6aR)-2-((4,6-dimethyl-2-(trifluoromethyl)pyrimidin-5-yl)sulfonyl)-5-(2-oxaspiro[3.3]heptan-6-yl)octahydropyrrolo[3,4-c]pyrrole]: the IC50 is less than 100 nM.

As to `Cc1nc(C(F)(F)F)nc(C)c1S(=O)(=O)N1C[C@H]2CN(CC3CCOCC3)C[C@@H]2C1` [Example 62, (3aR,6aR)-2-((4,6-dimethyl-2-(trifluoromethyl)pyrimidin-5-yl)sulfonyl)-5-((tetrahydro-2H-pyran-4-yl)methyl)octahydropyrrolo[3,4-c]pyrrole], the IC50 was less than 100 nM.

One may read the IC50 as the concentration at which inhibition is half-maximal. High values mean lower potency, low ones higher potency.

The values above are taken from patent publication US20260014119A1, “EMOPAMIL-BINDING PROTEIN INHIBITORS AND USES THEREOF” (BIOGEN MA INC., priority 2022, published 2026).
